Reference: patent US20220016273A1, “COMPOSITION FOR DIAGNOSIS OF FUNGAL INFECTION” (CNCURE BIOTECH INC., priority 2019, published 2022)

Legend:
[1] = system: A. fumigatus lung infection; assay: microPET imaging in A. fumigatus lung infection small animal model; format: in vivo; conditions: Balb/c mice infected with A. fumigatus in the lung; 7.4 MBq tail vein; image 2 hours after injection (FIG. 4)
Method: (§1) The present inventors created a lung infection model by the following method. First, after preparing Balb/c mice 8 weeks old (female), 150 mg/kg 100 μl of cyclophosphamide was intraperitoneally injected 4 days before infection. After 3 days, 100 μl of 250 mg/kg of cortisone acetate was injected into the subcutaneous fat layer, and the mice were anesthetized after 24 hours. And then the lung infection model mice were prepared by the injection of 70 μl of A. fumigatus fungal solution (about 1.5×10^7 conidia) through the nasal cavity.
(§2) The present inventors acquired microPET images 2 hours after injecting the [^18F]FDS (7.4 MBq) according to the present invention into the tail vein of the infected mice, and the acquired images were reconstructed by using the 3D-ordered subset expectation maximization (3D-OSEM) method.
The present inventors confirmed the fungal selective uptake ability of [^18F]FDS of the present invention using small animal infection models. To this end, [^18F]FDS was administered intravenously to Balb/c mice infected with A. fumigatus in the lung prepared in Example 4, and microPET images were acquired and analyzed.

[2] = system: A. fumigatus muscle infection; assay: microPET imaging in A. fumigatus muscle infection small animal model; format: in vivo; conditions: Balb/c mice, A. fumigatus forelimb muscle infection; 7.4 MBq tail vein; image 2 hours after injection; compared to the control group (FIGS. 5-7)
Method: as §1, with “produced” for “created”, “muscle” for “lung”, “100” for “70”, “1.5×10^8” for “1.5×10^7”, “into” for “through”, “forelimb muscle of the mice.” for “nasal cavity.”
as §2

C. albicans = assay: In vitro uptake of [^18F]FDS by cultured strains (gamma counter); format: cell-based, Candida albicans; conditions: 1×10^8 per mL, 0.74 MBq, incubated 2 hours (FIG. 3)
Method: (§3) The present inventors cultured the fungus using the following method. Specifically, Aspergillus fumigatus was smeared on potato dextrose agar medium (or YAG, yeast extract agar medium), and cultured at 30° C. for 2-3 days. Thereafter, the culture plate was washed with sterile physiological saline and Tween 20 [10 μl (1 drop)] and filtered with sterile gauze (or 40 μm-pore insertion filter). Then, the pellet was recovered using a centrifuge and the number of fungi was confirmed to prepare a bacterial solution of 1.5×10^9 conida/mL. Rhizopus arrhizus isolated from the patient was also cultured in the same way as A. fumigatus, prepared a fungal solution, and used for in vitro experiments. For Candida albicans, a strain isolated from the patient was also used, and cultured in SDA medium for 2-3 days. After recovering from the medium, a fungal solution was prepared.
(§4) The present inventors performed in vitro experiments on the strain cultured in Example 2 above. Specifically, each strain was prepared to be 1×10^8 per 1 mL of medium, and 1 mL was dispensed into tubes. The experiments were performed three times according to the experimental period, and 0.74 MBq of [^18F]FDS synthesized as described above was injected and incubated for 2 hours in the incubator. […] After washing twice with phosphate buffer, the filtered fungi were collected and the intake was measured with a gamma counter. […]

[3] = system: gram-positive bacterial strains; assay: In vitro uptake of [^18F]FDS by bacterial strains; format: cell-based; conditions: gram-positive bacterial strains (FIG. 3)
Method: (§5) The present inventors performed in vitro experiments on the strain cultured in Example 2 above. Specifically, each strain was prepared to be 1×10^8 per 1 mL of medium, and 1 mL was dispensed into tubes. The experiments were performed three times according to the experimental period, and 0.74 MBq of [^18F]FDS synthesized as described above was injected and incubated for 2 hours in the incubator. After 2 hours, each strain was divided into a filterable 1.5 mL centrifuge tube, and the fungi and medium were separated through centrifugation. After washing twice with phosphate buffer, the filtered fungi were collected and the intake was measured with a gamma counter.
(§6) The present inventors confirmed the uptake ability of [^18F]FDS of the present invention using fungal strain cultivation.

[4] = system: gram-negative bacterial strains; assay: In vitro uptake of [^18F]FDS by bacterial strains; format: cell-based; conditions: gram-negative bacterial strains (FIG. 3)
Method: as §5, §6

Rhizopus sp. = assay: In vitro uptake of [^18F]FDS by cultured strains (gamma counter); format: cell-based, Rhizopus arrhizus; conditions: 1×10^8 per mL, 0.74 MBq, incubated 2 hours (FIG. 3)
Method: as §3, §4

A. fumigatus = assay: as above; format: cell-based, Aspergillus fumigatus; conditions: 1×10^8 per mL, 0.74 MBq, incubated 2 hours (FIG. 3)
Method: as §3, §4

fungi = assay: In vitro uptake of [^18F]FDS, fungi compared with bacteria; format: cell-based; conditions: in vitro experiment; fungi vs bacteria
Method: as §5

**Q.** How did the “uptake of [^18F]FDS in the lungs (microPET)” value [1] turn out when `OC[C@@H](O)[C@@H](O)[C@H](O)[C@@H]([18F])CO` [[^18F]FDS, 2-deoxy-2-[^18F]fluorosorbitol] was run?
**A.** very high selective uptake

**Q.** And the “uptake of [^18F]FDS at the muscle infection site (microPET)” value [2]?
**A.** very high selective uptake

**Q.** What about the “uptake of [^18F]FDS” value (C. albicans) of the same compound?
**A.** very high selective uptake

**Q.** And the “uptake of [^18F]FDS” value [3]?
**A.** did not show no uptake

**Q.** And the “uptake of [^18F]FDS” value [4]?
**A.** showed uptake

**Q.** What about the “uptake of [^18F]FDS” value (Rhizopus sp.) of the same compound?
**A.** very high selective uptake

**Q.** And the “uptake of [^18F]FDS” value (A. fumigatus)?
**A.** very high selective uptake

**Q.** What about the “degree of uptake of [^18F]FDS by fungi relative to bacterial uptake” value (fungi) of the same compound?
**A.** more than 10 times
